# According to patent publication US6673555B1, “Methods of using SCAP antagonists” (SmithKline Beecham Corporation, priority 1999, dated 2004):
# Legend:
# [1] = test system: hamster LDL-receptor mRNA; experiment: LDL-receptor mRNA by real-time PCR in livers of cholesterol-fed hamsters; format: in vivo, Syrian golden hamster; settings: 5 mg/kg oral once a day for 3 days, versus vehicle, FIG. 6
# Procedure: (§1) The in vivo activity of SCAP antagonist was determined in the golden Syrian hamster previously fed with a cholesterol rich diet. Male Syrian golden hamsters (Janvier, France) were kept on a 12 h light-dark cycle. Animals (7 weeks age, 150 g) were fed for 2 weeks with a high cholesterol diet containing 0.2% cholesterol plus 10% coconut oil. Animals (n=5 per group) were then treated orally with vehicle, (0.5% methylcellulose, 5% Tween 80) or Example 1 at 1, 5 or 20 mg/kg in the vehicle, once a day for 3 days.
# 4 hours after the last administration, animals were sacrificed and livers were immediately dropped into liquid nitrogen. Total RNA was extracted using RNAqous kit (Ambion) according to manufacturer instruction. […] The expression of the hamster LDL-receptor was determined using the following primers: SEQ ID NO: 12 […] and SEQ ID NO: 13 […]. […] Each sample was quantified in duplicates and the cycle threshold (Ct) were calculated. For each animal the difference between Ct values for the LDL-receptor and Ribosomal RNA were calculated. The quantity of LDL-receptor mRNA relative to Ribosomal RNA reference was calculated as 2^−ΔΔCt and expressed in arbitrary units.
# Cholesterol-fed hamsters were treated with Example 1 (5 mg/kg) or vehicle for 3 days. LDL-receptor mRNA in the liver was quantified by real-time PCR using Ribosomal 18S RNA as internal reference.
# [2] = test system: golden Syrian hamster previously fed with a cholesterol rich diet; experiment: Lipoprotein and lipid in sera of cholesterol-fed hamsters (ultracentrifugation, enzymatic assays, SDS-PAGE); format: in vivo; settings: for apoB100: VLDL and LDL fraction; for reduction of LDL-cholesterol / reduction of triglycerides: Table 1
# Procedure: as §1
# 4h after the last treatment, animals were anesthetized, blood was collected and serum was prepared by centrifugation. Total cholesterol was determined using a enzymatic assay kit (Biomerieux, France). Lipoproteins were separated by ultracentrifugation using a single KBr concentration (density 1.063). Cholesterol and triglycerides associated with the upper phase (corresponding to VLDL +LDL lipoproteins) and cholesterol associated with the lower phase (corresponding to the HDL fraction) were determined using the enzymatic assays kits. Apolipoprotein B100 associated with VLDL and LDL lipoprotein fraction were analysed by SDS-PAGE and Coomassie blue staining. Lipoproteins were also separated by high-performance gel filtration chromatography with on-line colorimetric determination of cholesterol. Lipoprotein separation was performed on a single superose 6HR column (Pharmacia) with an elution buffer consisting of 10 mM tris, 1 mM EDTA and 150 mM NaCl adjusted at pH 7.4. Cholesterol was measured on line using the RTU enzymatic assay (Biomerieux). The column was calibrated using human lipoproteins and the various peaks in cholesterol profiles are designated VLDL, LDL and HDL for simplicity.
# Cholesterol-fed animals were treated for 3 days with Example 1 at 1 and 20 mg/kg. […] In another experiment, lipoproteins were separated by gel filtration and cholesterol content was quantified on-line. As shown in FIG. 7 Example 1 at […] strongly reduces atherogenic particles: 79% reduction of VLDL cholesterol and 60% reduction of LDL-cholesterol.
# [3] = 1 mg/kg oral once a day for 3 days
# [4] = 1 mg/kg oral once a day for 3 days, serum 4h after last treatment
# [5] = 20 mg/kg oral once a day for 3 days
# [6] = 20 mg/kg oral once a day for 3 days, serum 4h after last treatment
smiles,measurement,setting,value
"CCOc1cc(CC)ccc1C1CCN(CCCCNC(=O)c2ccc(NC(=O)c3ccc(Cl)cc3)cc2)CC1 [Example 1, 4-(4-Chloro-benzoylamino)-N-{4-[4-(2-ethoxy-4-ethyl-phenyl)-piperidin-1-yl]-butyl}-benzamide]",LDL-receptor mRNA in the liver,[1],increased mRNA for LDL-receptor
same,"CHOLESTEROL HDL chol, % of control",[2]; [3],123%
same,"CHOLESTEROL LCLchol, % of control",[2]; [3],50%
same,"CHOLESTEROL TOTAL, % of control",[2]; [3],79%
same,"Triglycerides TOTAL, % of control",[2]; [3],37% (p < 0.001)
same,"apoB100, % of control",[2]; [3],62% (p < 0.005)
same,apoB100,[2]; [3],3.1 ± 0.4 S.U.
same,CHOLESTEROL HDL chol,[2]; [4],1.5 ± 0.1 g/L
same,CHOLESTEROL LCLchol,[2]; [4],0.95 ± 0.2 g/L
same,CHOLESTEROL TOTAL,[2]; [4],3.1 ± 0.3 g/L
same,Triglycerides TOTAL,[2]; [4],1.3 ± 0.2 g/L
same,reduction of LDL-cholesterol,"[2]; 1 mg/kg, 3 days",50%
same,reduction of triglycerides,"[2]; 1 mg/kg, 3 days",63%
same,"CHOLESTEROL HDL chol, % of control",[2]; [5],113% NS
same,"CHOLESTEROL LCLchol, % of control",[2]; [5],17%
same,"CHOLESTEROL TOTAL, % of control",[2]; [5],55%
same,"Triglycerides TOTAL, % of control",[2]; [5],24% (p < 0.001)
same,"apoB100, % of control",[2]; [5],25% (p < 0.005)
same,apoB100,[2]; [5],1.2 ± 0.2 S.U.
same,CHOLESTEROL LCLchol,[2]; [6],0.3 ± 0.1 g/L
same,CHOLESTEROL TOTAL,[2]; [6],2.1 ± 0.3 g/L
same,Triglycerides TOTAL,[2]; [6],0.8 ± 0.02 g/L
same,reduction of LDL-cholesterol,"[2]; 20 mg/kg, 3 days",83%
same,reduction of triglycerides,"[2]; 20 mg/kg, 3 days",76%
same,effect on Apolipoprotein B100,"[2]; 1 and 20 mg/kg, 3 days",reduced to the same extent
same,effect on HDL-cholesterol,"[2]; 1 and 20 mg/kg, 3 days",unaffected
same,melting point,,250 °C
